{"source": "patent US20230056846A1", "about": "“METHODS AND COMPOSITIONS FOR CANCER IMMUNOTHERAPY” (MEMORIAL SLOAN KETTERING CANCER CENTER, priority 2020, published 2023)", "key": {"CT26 colon cancer cells": {"test_system": "CT26 colon cancer cells", "assay": "pre-treated CT26 cells implanted in mice randomized to anti PD-1 or IgG isotype control", "type": "in vivo, mouse", "text": "FIGS. 4A-B. Treatment of colon cancer cells with TMZ and cisplatin induces a high frameshift load leading to the spontaneous immuno-rejection of tumors in a preclinical mouse model. FIG. 4A. […] Treatment with either anti PD-1 or the IgG isotype control was commenced when the tumors reached a volume of 200 mm^3. […] The MSH2 KO cell line was used as a positive control for PD-1 blockade. FIG. 4B. Tumors were subjected to whole exome sequencing at 250x and immunoediting was studied by comparing mutation losses before and after engraftment.\nExperiments were performed to examine the effect of PD-1 blockade on the growth of tumors generated following injection of mice with tumor cells that had been pre-treated with either a vehicle control, TMZ alone, cisplatin alone, or TMZ/CDDP combination. 1 million cells from control or treatment groups (pre-treated for 8 weeks) were implanted subcutaneously into mice (n=10) and mice were then randomly assigned to either an anti PD-1 treatment group (treated with anti PD-1 at 6 mg/kg twice weekly when tumor reached 200 mm^3) or an IgG isotype control group. CT26 MSH2 KO cells were used as a positive control (FIG. 4). […] For tumors generated following injection of cells pre-treated with the combination of both temozolomide and cisplatin, out of 10 implanted tumors only one was not rejected (9 out of 10 were rejected). […]"}, "[1]": {"test_system": "CT26 colon cancer cell line", "experimental": "CT26 cells were treated for 8 weeks by low dose TMZ, CDDP or TMZ/CDDP combination (drugs were removed one week before the experiment)."}, "CT26 MSH2-/- MMRd cells": {"test_system": "CT26 MSH2-/- MMRd cells", "assay": "viability assay of MMR-deficient MSH2 KO CT26 cells", "type": "cell-based, mouse", "details": "MSH2 KO cells compared with parental CT26"}}}
{"smiles": "[NH2][Pt]([NH2])([Cl])[Cl]", "note": "[CDDP, cisplatin]", "values": [{"measurement": "effect of PD-1 blockade compared with isotype control on tumors from pre-treated cells", "setting": "CT26 colon cancer cells; anti PD-1 6 mg/kg twice weekly from 200 mm^3", "value": "no effect of PD-1 blockade"}, {"measurement": "tumor growth compared to control", "setting": "CT26 colon cancer cells; cells pre-treated 8 weeks, 1 week wash out", "value": "no significant difference in tumor growth compared to control"}, {"measurement": "sensitivity of CT26 cells to single agent", "setting": "[1]", "value": "sensitive"}, {"measurement": "cytotoxicity", "setting": "CT26 MSH2-/- MMRd cells", "value": "Higher activity"}]}
